The values below come from the NIST ThermoML archive (doi:10.1021/acs.jced.7b00819).

For data set [1] the following is noted: Crystal; DTA.
Data set [2] in a line: Molar enthalpy of transition or fusion. Conditions: Crystal; DSC.

The structures appear in SMILES notation. ± gives the expanded uncertainty stated by the source.

Consider `CCOC(=O)C1=NN(c2ccc(Cl)cc2Cl)[C@](C)(C(=O)OCC)C1`, for which the Normal melting temperature in data set [1] came out at 30.5 ± 0.7 °C. In addition, in data set [2], the “Molar enthalpy of transition or fusion” value was found to be 5.88 ± 0.263 kcal/mol.
Taken in the same sequence, the figures for `CCOC(=O)C1=NN(c2ccc(Cl)cc2Cl)C(C)(C(=O)OCC)C1` (centres undefined) were 49.2 ± 0.7 °C and 4.4 ± 0.239 kcal/mol.
